Results reported in paper PMC12590356, “Novel pyrrolo[2,1-a]isoquinoline aryl ketones attenuate carbon nanotube-induced acute lung injury through NF-κB pathway inhibition” (RSC Advances, 2025).
Entries after “also recorded” stand apart in the source; their conditions may differ.

Columns and labels:
[1] = system: SWCNT-induced ALI mice; assay: Lung histopathology (H&E) in SWCNT-induced ALI mice; assay type: in vivo, C57BL/6 mice; settings: 50 mg/kg once a day for 3 d
Method: To evaluate the histopathological impact of 3g and 3k on SWCNT-induced ALI, hematoxylin and eosin (H&E) staining was performed on murine lung tissues.
(§1) Based on the results of the previous in vitro experiments, 3g and 3k were chosen for animal experiments. 3g was dissolved in 5% DMSO and 3k was dissolved in 0.5% sodium carboxymethyl cellulose (CMC-Na). Male C57BL/6 mice were randomly divided into four groups of ten animals each: CON, single-walled carbon nanotubes (SWCNT) model, 3k (50 mg kg^−1) + SWCNT, 3g (50 mg kg^−1) + SWCNT. The SWCNT model group was administered a one-time tracheal drip of 50 μL of SWCNT suspension containing 40 μg of SWCNT (approximately 1.86 mg per kg body weight) per mouse to model ALI. A blank tracheal drip of PBS was administered to the negative control. 3k + SWCNT and 3g + SWCNT groups were administered 3k or 3g of 50 mg per kg body weight once a day for 3d. The animals in the CON group received the same volume of 0.5% CMC-Na. The 1st dose was administered 1 h before modeling to avoid excessive damage to mice. The control and model groups were injected intraperitoneally with a blank solvent. […]
(§2) Mouse lung tissues were isolated and stored in a 4% paraformaldehyde solution. […] Representative images of each sample were acquired (magnification ×200) and analyzed using the ImageJ software. […]

[2] = CCK8 cell viability (cytotoxicity) assay; assay type: cell-based, murine; settings: mouse, RAW264.7 cells, means ± SD (n = 3)
Method: The toxic effect of synthesized compounds was evaluated on RAW264.7 cells utilizing a CCK8 assay kit.
RAW264.7 cells were seeded in 96-well plates and incubated with various compounds, each at a uniform concentration of 50 μM, for 24 h. Following this incubation, CCK8 was added to the 96-well plates and incubated at 37 °C for 1 h. The control group was cultivated solely in fresh medium. The absorbance at 450 nm was quantified using an enzyme marker.

[3] = system: NF-κB p65; assay: Immunofluorescence of NF-κB p65 in lung tissues; assay type: in vivo, C57BL/6 mice; settings: SWCNT-induced ALI mice, 50 mg/kg once a day for 3 d
From the text: To elucidate the mechanism underlying the modulation of NF-κB pathway, we employed immunofluorescence techniques to scrutinize the spatiotemporal dynamics of NF-κB p65 within lung tissues. The canonical NF-κB signaling cascade involves IκB kinase (IKK)-mediated phosphorylation of IκBα, triggering its ubiquitination and proteasomal degradation. This process releases the NF-κB p65/p50 heterodimer, enabling its nuclear translocation and subsequent initiation of pro-inflammatory mediator transcription.[35,36] […] This finding implies a pharmacological activity that is contingent upon the structural characteristics of the compounds.
Based on the results of the previous in vitro experiments, 3g and 3k were chosen for animal experiments. 3g was dissolved in 5% DMSO and 3k was dissolved in 0.5% sodium carboxymethyl cellulose (CMC-Na). Male C57BL/6 mice were randomly divided into four groups of ten animals each: CON, single-walled carbon nanotubes (SWCNT) model, 3k (50 mg kg^−1) + SWCNT, 3g (50 mg kg^−1) + SWCNT. The SWCNT model group was administered a one-time tracheal drip of 50 μL of SWCNT suspension containing 40 μg of SWCNT (approximately 1.86 mg per kg body weight) per mouse to model ALI. […]
as §2

[4] = system: IL-6; assay: IL-6 secretion in LPS-stimulated RAW264.7 macrophages (ELISA); assay type: cell-based, murine; settings: LPS (0.5 μg/mL)-stimulated RAW264.7 cells, 5, 20, 40 μM, 24 h
Method: (§3) To elucidate the anti-inflammatory mechanisms underlying 3g and 3k, we conducted a comprehensive investigation into their impact on the secretion of pro-inflammatory cytokines, employing an LPS-stimulated RAW264.7 macrophage model. TNF-α and IL-6, which serve as pivotal mediators in the pathogenesis of ALI, are primarily secreted by activated alveolar macrophages, neutrophils, and lung structural cells. […] In this study, RAW264.7 cells were treated with LPS (0.5 μg mL^−1) and varying concentrations of 3g or 3k for 24 hours. […] This mechanistic understanding provides robust support for the therapeutic potential of the novel diaryl ketone scaffold in the ALI management.
(§4) Fig. 2 Compounds 3g and 3k inhibited the cytokine production of RAW264.7 cells stimulated by LPS. […] The levels of IL-6 (A) and TNF-α (B) in the culture medium were measured by ELISA kits. Data are expressed as mean ± SEM for each group of independent experiments (n = 3); *p < 0.05; **p < 0.01; ***p < 0.001 vs. model group.
(§5) Based on the initial screening results, compounds 3g and 3k were selected for further experimentation. […] The levels of TNF-α and IL-6 released into the macrophage supernatant were quantified using ELISA kits sourced from Elabscience (Wuhan, China), according to the manufacturer's guidelines.

[5] = system: TNF-α; assay: TNF-α in BALF of ALI mice (ELISA); assay type: in vivo, C57BL/6 mice; settings: SWCNT-induced ALI mice, 50 mg per kg dose
Method: (§6) To confirm the in vivo inhibitory effects of 3g and 3k, we examined the levels of pro-inflammatory cytokines in bronchoalveolar lavage fluid (BALF) from ALI mice.
as §1
(§7) The collected bronchoalveolar lavage fluid (BALF) was centrifuged to obtain the supernatant. The concentrations of TNF-α and IL-6 in BALF were determined using ELISA. […]

[6] = system: IL-6; assay: IL-6 in BALF of ALI mice (ELISA); assay type: in vivo, C57BL/6 mice; settings: SWCNT-induced ALI mice, 50 mg per kg dose
Method: as §6, §1, §7

[7] = system: TNF-α; assay: TNF-α secretion in LPS-stimulated RAW264.7 macrophages (ELISA); assay type: cell-based, murine; settings: Mus musculus, LPS (0.5 μg/mL)-stimulated RAW264.7 cells, 24 h, read-out: IC50 for TNF-α inhibition
Method: as §3, §4, §5

Structure (SMILES)	Histopathological lung changes (H&E) ([1]; 50 mg/kg)	viability at 24 h, 50 µM [2]	p65 fluorescence intensity and nuclear translocation in lung tissue ([3]; 50 mg/kg)	IL-6 secretion [4]	TNF-α level in BALF [5]	IL-6 level in BALF [6]	IC50 [7]	Histopathological lung changes (H&E) [1]	p65 fluorescence intensity and nuclear translocation in lung tissue [3]
O=C(c1ccc(F)cc1)c1ccc2c3ccccc3ccn12 [3g]	significantly ameliorated these histopathological features; also recorded: superior efficacy in mitigating structural damage and neutrophil infiltration compared to 3k	86.5 ± 1.2%	reduced fluorescence intensity and suppressed nuclear translocation of p65; also recorded: significantly enhanced efficacy in inhibiting he nuclear translocation of p65	suppressed cytokine secretion in a dose-dependent manner	effectively suppressed the release of TNF-α	effectively suppressed the release of TNF-α and IL-6	7.85 µM	–	–
Cc1ccccc1C(=O)c1ccc2c3ccccc3ccn12 [3k]	–	98.8 ± 4.7%	–	suppressed cytokine secretion in a dose-dependent manner	effectively suppressed the release of TNF-α	effectively suppressed the release of TNF-α and IL-6	8.3 µM	significantly ameliorated these histopathological features	reduced fluorescence intensity and suppressed nuclear translocation of p65
